# Reference: publication PMC9028786, “The Ribosome Is the Ultimate Receptor for Trypsin Modulating Oostatic Factor (TMOF)” (Biomolecules, 2022)
# Ends that are not written are not given here.
# Key:
# [1] = system: trypsin mRNA in the gut epithelial cells; settings: gut epithelial cells of Ae. aegypti and Neobellieria bullata; cited from earlier work
# Excerpt: Several of these ABC transporters with 80–100% similarity with the AeaTMOF receptor are also found in several Aedes, Anopheles, and ...
# E. coli ribosome = assay: Binding of AeaTMOF-FITC to purified E. coli ribosomes; design: species or system Escherichia coli
# Description: The purification of E. coli ribosomes is a modification of earlier published methods. Briefly, E. coli (BL21) cells were grown in LB medium for 24 h to OD600 of 1.1, and the cells were centrifuged at 5000 rpm at 6 °C for 5 min. The supernatant was discarded and the pellet was washed with 40 mM HEPES-KOH pH7.4, 100 mM NaCl, and 2 mM Mg(OAc)2 buffer. The suspension was centrifuged at 6000 rpm for 5 min, the supernatant discarded, and the pellet was frozen at −80 °C and stored overnight. The frozen pellet was taken up in 10 mL of sonication buffer of 20 mM HEPES-KOH pH 7.5, 100 NH4OAc, 6 mM βME, 0.5 mM Na-EDTA, and 0.5% Tween 20 containing 100 units of RNase inhibitor, and the solution was sonicated at 40% power for 10 s, 50% power for 10 s, and 60% power for 20 s. During the sonication, the tube was immersed in an ice bath. The lysed cell solution (25 mL) in sonication buffer was centrifuged at 30,000 g in a Beckman ultracentrifuge using a 70Ti centrifuge rotor for 30 min at 4 °C. After centrifugation, the supernatant was collected, and the pellet discarded. […] The amount of the protein in the ribosome preparation and the ribosomal RNA was determined (2.28 mg/mL protein and 3.932 mg/mL ribosomal RNA). […]
# Purified E. coli ribosomes (1 μL, 9.4 μg) in tight association buffer (20 mM HEPES-KOH pH 7.6, 6 mM Mg(OAc)2, 30 mM NH4OAc, and 6 mM βME) were incubated in Eppendorf tubes containing 100 μL of tight association buffer and 5 μL of AeaTMOF-FITC (0–0.2 μM) (Specific activity 8333 Fluorescence Units/pmol) for 60 min at 30 °C with gentle shaking. […] The washing by centrifugation with 5% TCA was repeated 3 times, and after the final centrifugation, the pellets were dissolved in 100 μL of PBS containing 0.4N NaOH, and the fluorescence of the dissolved pellets was read in a GloMax multidetector system using a blue filter (Excitation at 490 nm and Emission at 510–570 nm). All data were corrected for nonspecific fluorescence when incubations were run without AeaTMOF-FITC or with AeaTMOF-FITC and without ribosomes. […]
# luciferase = assay: Effect on activity of pre-synthesized luciferase; type: biochemical, Beetle; settings: results not shown
# Description: Incubations of E. coli S30 extract synthesizing Beetle luciferase in the presence of an increasing concentration of AeaTMOF (0.001 to 750 μM) stopped the biosynthesis of luciferase, diminishing its activity on Beetle luciferin as measured in luminescence units. The activity of the in vitro synthesized luciferase on Beetle luciferin at very low concentration of AeaTMOF (0.001 μM) was similar to luciferase activity without AeaTMOF, and this luminescence was used to calculate the decrease in luminescence (%) after incubation with increasing concentrations of AeaTMOF (Figure 1A). Higher concentrations of AeaTMOF (higher than 0.001 μM) caused a linear decrease in the synthesis of luciferase and a decline in luminescence (%) reaching IC50 (inhibition concentration of 50%) at 1 μM (Figure 1A). […] AeaTMOF is not an inhibitor of luciferase.
# bacterial 70 S ribosome = assay: Inhibition of luciferase translation in E. coli S30 extract; type: biochemical, Escherichia coli
# Description: To test the effect of AeaTMOF and Oncocin112 (1–13) on the translation of Luciferase by the bacterial 70 S ribosome, an E. coli S30 lysate extract system for circular DNA (Promega) containing a plasmid pBestluc DNA vector (4486 bp) (1 mg/mL) 0.3 μL, amino acid mixture without methionine (1 mM) 1.25 μL, amino acid mixture without Leucine (1 mM) 1.25 μL, S30 premix (including ribosomes) without amino acids 5 μL, S30 extract circular 3.5 μL, RNasin (8 U, 112 ng) 0.2 μL, different concentrations of AeaTMOF or Oncocin112 (1–13) (0.001 μM to 1000 μM), and nuclease-free water to a volume of 12.5 μL were incubated for 2 h at 37 °C. […] After incubation, 87.5 μL of GLO lysis buffer (Promega) containing beetle luciferin was added, mixed, and aliquots (5 μL) were removed, and their luminescence read in a GLOMAX multidetector system. […] The decrease in luminescence (% ± SEM) in the presence of increasing log AeaTMOF or Oncocin112 (1–13) concentrations was then plotted using GrapPad Prism 3.
# [2] = system: E. coli mutant cells CGSC strain 8547 SbmA^- expressing only ABC-tmfA importer; assay: Growth/viability of E. coli mutant CGSC strain 8547 SbmA^- expressing ABC-tmfA importer; type: cell-based, Escherichia coli
# Description: E. coli CGSC strain […] lacking the SbmA importer expressing the ABCtmfA receptor/importer was prepared using plasmid pTAC-MAT-2 ABCtmfA importer/receptor as described earlier. [3,4,5 ^3H]Leucine 250 μCi, Spc Act 100–150 Ci/mmol was purchased from Perkin Elmer (Waltham, MA, USA). AeaTMOF-FITC (H-YDPAPPPPPPK(FITC)K-OH) was synthesized at the University of Colorado Anschutz School of Medicine protein core. AeaTMOF-FITC was purified by HPLC showing a single peak, and mass spectrometry analysis of the peak identified the 3 expected ions at 455.7, 607.3, and 910.3, showing an expected Mr 1019.56 as was described earlier. Synthetic AeaTMOF (H-YDPAPPPPPP-OH) and a short Oncocin112(1–13) (H-VDKPPYLPRPRPP-OH), a 13 amino acids oncocin112 peptide, 6 amino acids shorter than the original oncocin112 of 19 amino acids, were synthesized and purified by HPLC [16]. After HPLC purifications of AeaTMOF, oncocin112 (1–13), and AeaTMOF-FITC, the TFA ions were exchanged with phosphate ions.
# (§1) We aimed to find out if AeaTMOF can also stop bacterial growth as, was shown for the proline-rich Oncocin112 that binds to the bacterial ribosome, stopping protein translation, bacterial growth, and causing bacterial death. E. coli CGSC strain7636 (2.7 × 10^4 cells) SbmA^+, expressing the proline-rich peptides importer SbmA, were incubated in 96-well plate containing 100 μL/well of LB medium, 0.4 mM of IPTG, 0.1 mM of ampicillin, and different concentrations of AeaTMOF and Oncocin112 (1–13) (3 mM and 10 mM) in different wells. The 96-well plate was incubated at 37 °C for 18 h and bacterial growth was followed at 630 nm using Biotech ElX808 absorbance microplate reader. Control wells contained bacterial cells growing without AeaTMOF or oncocin112 (1–13). […] After the incubations in the presence of Oncocin112 (1–13) or AeaTMOF of 10 mM and 3 mM, aliquots (0.5 μL) were removed from each well and spread on LB agar plates containing 0.1 mM of ampicillin, and the plates were incubated overnight at 37 °C and viable colonies were counted. Incubations were done in triplicates and the experiments were repeated twice. Results are expressed as means of three determinations ± SEM.
# [3] = system: E. coli CGSC strain7636 cells expressing SbmA^+; assay: Growth/viability of E. coli CGSC strain7636 expressing SbmA; type: cell-based, Escherichia coli; settings: 3 and 10 mM peptide, 37 °C, 18 h, p < 0.05 vs control
# Description: as §1
substance,measurement,setting,value
"NPTNLH [NebTMOF, NPTNLH, trypsin modulating oostatic factor of Neobellieria bullata, reference compound]",Effect on translation of trypsin mRNA,[1],stop the translation of trypsin mRNA
"H-YDPAPPPPPPK(FITC)K-OH [AeaTMOF-FITC, H-[…](FITC)K-OH, FITC-labelled AeaTMOF]","Kassoc, affinity constant",E. coli ribosome; calculated from specific binding KD,4.3e+07 M⁻¹
same,Kd,"E. coli ribosome; purified E. coli (BL21) ribosomes 9.4 μg, AeaTMOF-FITC 0–0.2 μM, tight association buffer pH 7.6, 60 min at 30 °C, TCA precipitation, fluorescence, nonspecific binding subtracted, nonlinear regression, ± SEM, n = 6",23 ± 3.4 nM
same,"Bmax, ribosome binding","E. coli ribosome; purified E. coli ribosomes, AeaTMOF-FITC 0–0.2 μM, pH 7.6, 60 min at 30 °C, fluorescence, nonlinear regression, ± SEM, n = 6",0.553 ± 0.023 pmol/μg ribosome
"VDKPPYLPRPRPP [Oncocin112 (1–13), reference compound]",Effect on Beetle luciferase biosynthesis versus activity,luciferase,inhibits Beetle luciferase biosynthesis and not its activity
same,Inhibition of luciferase biosynthesis at lowest concentration,"bacterial 70 S ribosome; AeaTMOF at 0.001 μM, Oncocin112 (1–13) at 0.01 μM, 2 h at 37 °C",do not inhibit the biosynthesis of luciferase
same,IC50,"bacterial 70 S ribosome; E. coli S30 lysate, pBestluc DNA, 2 h at 37 °C, peptide 0.001 to 750 μM, luminescence read-out, mean of three determinations, read-out: IC50, inhibition of luciferase biosynthesis (luminescence)",2000 nM
same,IC50 increase compared with AeaTMOF,bacterial 70 S ribosome; IC50 2 μM versus AeaTMOF,twofold increase
same,E. coli growth,"[2]; SbmA^- cells expressing ABC-tmfA importer, 3 and 10 mM peptide, 37 °C, 18 h, 630 nm, p < 0.05 for inhibition",grew at the same rate
same,E. coli cell growth (discussion),"[2]; cells that only expressed ABCtmfA receptor/importer, up to 10 mM","did not affect the cell growth, even at high concentrations of 10 mM"
same,Importer used,"[2]; inferred from growth of SbmA^+ and SbmA^- ABC-tmfA E. coli, 3 and 10 mM",can only use the bacterial natural importer SbmA
same,E. coli growth,[3]; 630 nm,significantly inhibited the growth of the E. coli cells
same,Viable colonies at end of incubation,"[3]; initial 2.7 × 10^4 cells, LB medium, plated on LB agar, triplicates",4–10 colonies
